Among the data in US9062055B2, “Fused pyrrole derivatives as PI3K inhibitors” (Incyte Corporation, priority 2010, dated 2015) are IC50 values, retold here.

Where a name gives a salt, the structure may show the parent alone. A value given as a limit tells only on which side of the number the result lay.

The term IC50 denotes the midpoint of a concentration-inhibition curve.

T1 sequence (O00329 whole entry): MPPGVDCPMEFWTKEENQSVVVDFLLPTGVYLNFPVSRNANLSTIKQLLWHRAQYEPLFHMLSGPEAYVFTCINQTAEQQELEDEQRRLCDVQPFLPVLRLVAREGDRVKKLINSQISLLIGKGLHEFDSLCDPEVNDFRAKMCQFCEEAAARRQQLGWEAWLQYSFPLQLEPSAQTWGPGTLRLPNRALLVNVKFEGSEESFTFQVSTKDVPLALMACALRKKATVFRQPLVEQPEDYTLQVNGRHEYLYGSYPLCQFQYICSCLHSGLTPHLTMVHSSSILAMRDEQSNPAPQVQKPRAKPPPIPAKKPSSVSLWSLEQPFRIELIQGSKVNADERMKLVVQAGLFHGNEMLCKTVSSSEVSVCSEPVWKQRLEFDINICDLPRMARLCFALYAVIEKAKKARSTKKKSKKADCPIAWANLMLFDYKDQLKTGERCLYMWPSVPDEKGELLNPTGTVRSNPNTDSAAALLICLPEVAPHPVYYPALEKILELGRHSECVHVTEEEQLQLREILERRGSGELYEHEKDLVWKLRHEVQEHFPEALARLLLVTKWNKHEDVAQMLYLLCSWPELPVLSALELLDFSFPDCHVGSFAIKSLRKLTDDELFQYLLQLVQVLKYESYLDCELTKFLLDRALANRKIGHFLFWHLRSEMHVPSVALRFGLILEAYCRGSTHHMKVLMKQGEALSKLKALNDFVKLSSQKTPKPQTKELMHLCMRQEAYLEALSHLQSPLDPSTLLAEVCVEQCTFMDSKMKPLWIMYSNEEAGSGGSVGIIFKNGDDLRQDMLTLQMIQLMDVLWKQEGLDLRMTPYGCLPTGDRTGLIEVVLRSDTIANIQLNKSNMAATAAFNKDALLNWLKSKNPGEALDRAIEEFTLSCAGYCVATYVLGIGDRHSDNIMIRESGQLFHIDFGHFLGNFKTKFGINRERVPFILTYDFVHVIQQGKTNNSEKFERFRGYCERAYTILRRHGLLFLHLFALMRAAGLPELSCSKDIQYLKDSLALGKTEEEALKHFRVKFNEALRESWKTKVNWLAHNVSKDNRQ
T1 sequence (P27986 whole entry partner): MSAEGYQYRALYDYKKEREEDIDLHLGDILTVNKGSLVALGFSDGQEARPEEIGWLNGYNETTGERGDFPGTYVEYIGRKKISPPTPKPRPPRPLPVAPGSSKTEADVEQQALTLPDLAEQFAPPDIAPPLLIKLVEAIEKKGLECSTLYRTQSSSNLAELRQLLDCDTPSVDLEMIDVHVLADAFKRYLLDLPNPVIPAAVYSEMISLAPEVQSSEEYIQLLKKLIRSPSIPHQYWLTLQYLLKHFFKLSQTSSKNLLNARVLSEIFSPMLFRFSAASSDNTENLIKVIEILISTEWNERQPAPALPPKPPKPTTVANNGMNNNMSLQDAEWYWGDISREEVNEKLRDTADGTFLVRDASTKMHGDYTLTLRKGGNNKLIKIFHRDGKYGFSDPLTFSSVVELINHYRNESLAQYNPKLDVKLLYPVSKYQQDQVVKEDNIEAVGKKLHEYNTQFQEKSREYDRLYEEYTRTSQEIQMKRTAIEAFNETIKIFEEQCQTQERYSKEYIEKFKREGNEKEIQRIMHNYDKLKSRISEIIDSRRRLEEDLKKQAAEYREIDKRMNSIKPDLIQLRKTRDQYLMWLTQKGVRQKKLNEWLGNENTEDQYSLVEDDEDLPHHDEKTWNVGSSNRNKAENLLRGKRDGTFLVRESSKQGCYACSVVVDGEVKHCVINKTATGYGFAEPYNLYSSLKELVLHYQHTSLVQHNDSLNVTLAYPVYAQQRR

This assay has as its target T1, PI3Kδ (p110δ/p85α) (Homo sapiens, UniProt O00329).
T1 construct: purchased Millipore (Bedford, Mass.)
The assay can be described thus: PI3Kδ Scintillation Proximity Assay. The assay is classed as biochemical. The following applies: TFA salts of racemates tested; 20 μM PIP2, 20 μM ATP, 4 nM PI3Kδ, 210 min, room temperature. From the text:
[γ-^33P]ATP (10 mCi/mL) was purchased from Perkin-Elmer (Waltham, Mass.). Lipid kinase substrate, D-myo-Phosphatidylinositol 4,5-bisphosphate (PtdIns(4,5)P2)D (+)-sn-1,2-di-O-octanoylglyceryl, 3-O-phospho linked (PIP2), CAS 204858-53-7, was purchased from Echelon Biosciences (Salt Lake City, Utah). PI3Kδ (p110δ/p85α) was purchased from Millipore (Bedford, Mass.). ATP, MgCl2, DTT, EDTA, MOPS and CHAPS were purchased from Sigma-Aldrich (St. Louis, Mo.). Wheat Germ Agglutinin (WGA) YSi SPA Scintillation Beads was purchased from GE healthcare life sciences (Piscataway, N.J.). The kinase reaction was conducted in polystyrene 384-well matrix white plate from Thermo Fisher Scientific in a final volume of 25 μL. Inhibitors were first diluted serially in DMSO and added to the plate wells before the addition of other reaction components. The final concentration of DMSO in the assay was 0.5%. The PI3K assays were carried out at room temperature in 20 mM MOPS, pH 6.7, 10 mM MgCl2, 5 mM DTT and CHAPS 0.03%. Reactions were initiated by the addition of ATP, the final reaction mixture consisted of 20 μM PIP2, 20 μM ATP, 0.2 μCi [γ-^33P] ATP, 4 nM PI3Kδ. Reactions were incubated for 210 min and terminated by the addition of 40 μL SPA beads suspended in quench buffer: 150 mM potassium phosphate pH 8.0, 20% glycerol. 25 mM EDTA, 400 μM ATP. The final concentration of SPA beads was 1.0 mg/mL After the plate sealing, plates were shaken overnight at room temperature and centrifuged at 1800 rpm for 10 minutes, the radioactivity of the product was determined by scintillation counting on Topcount (Perkin-Elmer). IC50 determination was performed by fitting the curve of percent control activity versus the log of the inhibitor concentration using the GraphPad Prism 3.0 software. See Table 1 for data related to compounds of the invention (TFA salts of racemates of each of the compounds were tested).
(In a scintillation proximity assay essentially only radioactivity close to the scintillant gives light.)
For `CC(Nc1ncnc2[nH]cnc12)c1cc2ccc(Cl)cc2n1-c1cccc(F)c1` (racemic) [Example 1, N-{1-[6-Chloro-1-(3-fluorophenyl)-1H-indol-2-yl]ethyl}-9H-purin-6-amine trifluoroacetate], the IC50 was 100 to 250 nM.

For `CC(Nc1ncnc2[nH]cnc12)c1c(Cl)c2ccccc2n1-c1cccc(F)c1` (racemic) [Example 3, N-{1-[3-Chloro-1-(3-fluorophenyl)-1H-indol-2-yl]ethyl}-9H-purin-6-amine trifluoroacetate], the IC50 is no more than 50 nM.

In the case of `CC(Nc1ncnc2[nH]cnc12)c1c(Br)c2ccccc2n1-c1cccc(F)c1` (racemic) [Example 5, N-{1-[3-Bromo-1-(3-fluorophenyl)-1H-indol-2-yl]ethyl}-9H-purin-6-amine trifluoroacetate], the half-inhibitory concentration (IC50) lay in the range of 50 to 100 nM.

In the case of `CC(Nc1ncnc2[nH]cnc12)c1cc2cccnc2n1-c1cccc(F)c1` (racemic) [Example 7, N-(1-(1-(3-Fluorophenyl)-1H-pyrrolo[2,3-b]pyridin-2-yl)ethyl)-9H-purin-6-amine bis(2,2,2-trifluoroacetate)], the IC50 fell in the range of 250 to 750 nM.

For the compound `CC(Nc1ncnc2[nH]cnc12)c1c(Cl)c2cccnc2n1-c1cccc(F)c1` (racemic) [Example 6, N-{1-[3-Chloro-1-(3-fluorophenyl)-1H-pyrrolo[2,3-b]pyridin-2-yl]ethyl}-9H-purin-6-amine bis(trifluoroacetate)], the IC50 was no more than 50 nM.

In the case of `CC(Nc1ncnc2[nH]cnc12)c1c(Cl)c2c(Cl)cccc2n1-c1cccc(F)c1` (racemic) [Example 4, N-{1-[3,4-Dichloro-1-(3-fluorophenyl)-1H-indol-2-yl]ethyl}-9H-purin-6-amine trifluoroacetate], the IC50 was in the range of 50 to 100 nM.

Take `CC(Nc1ncnc2[nH]cnc12)c1c(C#N)c2ccccc2n1-c1cccc(F)c1` (racemic) [Example 9, 2-(1-(9H-Purin-6-ylamino)ethyl)-1-(3-fluorophenyl)-1H-indole-3-carbonitrile 2,2,2-trifluoroacetate]: the IC50 is no more than 50 nM.

Consider `CC(Nc1ncnc2[nH]cnc12)c1cc2c(Cl)cccc2n1-c1cccc(F)c1` (racemic) [Example 2, N-{1-[4-Chloro-1-(3-fluorophenyl)-1H-indol-2-yl]ethyl}-9H-purin-6-amine trifluoroacetate], for which the half-maximal inhibitory concentration (IC50) was no more than 50 nM.

Turning to `Cc1c(C(C)Nc2ncnc3[nH]cnc23)n(-c2cccc(F)c2)c2ccccc12` (racemic) [Example 8, N-{1-[1-(3-Fluorophenyl)-3-methyl-1H-indol-2-yl]ethyl}-9H-purin-6-amine trifluoroacetate], the 50% inhibitory concentration (IC50) was no more than 50 nM.

Turning to `CC(Nc1ncnc2[nH]cnc12)c1c(F)c2cccnc2n1-c1cccc(F)c1` (racemic) [Example 10, N-(1-(3-Fluoro-1-(3-fluorophenyl)-1H-pyrrolo[2,3-b]pyridin-2-yl)ethyl)-9H-purin-6-amine bis(2,2,2-trifluoroacetate)], the IC50 is 100 to 250 nM.
